Measured values from paper PMC9103758 (International Journal of Molecular Sciences, 2022).
Entries after “also recorded” stand apart in the source; their conditions may differ.

Assays:
hERG K+ channel = biological target: T1, hERG K+ channel (Homo sapiens, UniProt Q12809); assay: FluxOR thallium flux assay in HEK293T cells expressing hERG; type: cell-based
T1 construct: expressed in transfected cells; called HEK293
Protocol: (C) Summary of dose-response (mean ± S.E., n = 5). […] (F) Summary of dose−response (mean ± S.E., n = 6).
HEK293 cells stably expressing human Kv11.1 (hERG) were cultured in 96-well plates. After 48 h, the cells were incubated at 28 °C for 4 h to increase the membrane expression of hERG. The culture medium was replaced with a 80 μL/well of FluxOR (Invitrogen, Waltham, MA, USA) loading buffer and incubated for 1 h at 37 °C in the dark. After removing the loading buffer, 100 μL of assay buffer was added to each well. […] FluxOR fluorescence (excitation/emission: 490/525 nm) was recorded for 4 s before the addition of 20 μL of stimulus buffer containing thallium ions, and the fluorescence was recorded. FluxOR fluorescence was recorded and analyzed using the FLUOstar Omega microplate reader (BMG Labtech, Ortenberg, Germany) and the MARS Data Analysis Software (BMG Labtech, Ortenberg, Germany). All buffers were prepared according to the manufacturer’s instructions.

[1] = test system: ATP-induced intracellular calcium signaling in FRT cells; assay: Intracellular calcium measurement (Fluo-4) in FRT cells; type: cell-based, rat; conditions: dose-dependent, 100 μM ATP
Protocol: (§1) (A) Representative Fluo4 fluorescence traces from 3 independent experiments in FRT cells. […] (B,C) Representative apical membrane currents from 3–4 independent experiments in FRT cells expressing human ANO1. […] (D) Representative YFP fluorescence traces in FRT cells expressing human ANO2. […] (E) Representative Fluo4 fluorescence traces from 3 independent experiments in FRT cells. Cells were pretreated with DCPIB for 10 min followed by application of 100 μM ATP. (F) Representative apical membrane currents in FRT cells expressing human ANO1.
FRT cells were plated on 96-well black-walled microplates and loaded with Fluo-4 NW according to the manufacturer’s protocol (Invitrogen, Carlsbad, CA, USA). […] The 96-well plates were transferred to a plate reader for fluorescence assay.

NIH-3T3 cells = assay: Cell viability (MTS/MTT) in NIH-3T3 cells; type: cell-based; conditions: 24 h, up to/at 30 μM
Protocol: […]. (A) Structure of VI-116. (B) Representative YFP fluorescence traces. The inhibitory effects of VI-116 on VRAC activity were determined using YFP fluorescence assay in LN215 cells. VRAC was activated by application of […] solution for 5 min. (C) Summary of VRAC dose-response (mean ± S.E., n = 4). (D) Summary of VRAC dose−response with 10% FBS (mean ± S.E., n = 4). […].
NIH-3T3 cells were plated on 96-well microplates. After 24 h incubation, cells were treated with VI-116 or DCPIB and incubated for 24 h. The culture medium and the compounds were changed every 12 h. To assess cell proliferation, the cells were incubated with MTS for 1 h. The soluble formazan produced by the cellular reduction of MTS was quantified by measuring the absorbance at 490 nm with an Infinite M200 (Tecan, Grödig, Austria) microplate reader. MTS assay was performed using a CellTiter 96 Aqueous One Solution Cell Proliferation Assay kit (Promega, Madison, WI, USA).

[2] = test system: calcium-activated chloride currents in calf pulmonary artery endothelial (CPAE) cells; conditions: cited from earlier work
ANO1 = biological target: T2, ANO1 (Homo sapiens, UniProt Q5XXA6, DEL476-501); assay: Apical membrane current of ANO1 in FRT cells expressing human ANO1; type: cell-based; conditions: 3 μM Eact
T2 construct: expressed in transfected cells; host or cells: Fisher rat thyroid (FRT) cells; The YFP assay uses FRT-ANO1-YFP cells, which also carry the halide sensor
T2 sequence (Q5XXA6 with tags, fused parts or gaps isoform Q5XXA6-5 DEL539-564): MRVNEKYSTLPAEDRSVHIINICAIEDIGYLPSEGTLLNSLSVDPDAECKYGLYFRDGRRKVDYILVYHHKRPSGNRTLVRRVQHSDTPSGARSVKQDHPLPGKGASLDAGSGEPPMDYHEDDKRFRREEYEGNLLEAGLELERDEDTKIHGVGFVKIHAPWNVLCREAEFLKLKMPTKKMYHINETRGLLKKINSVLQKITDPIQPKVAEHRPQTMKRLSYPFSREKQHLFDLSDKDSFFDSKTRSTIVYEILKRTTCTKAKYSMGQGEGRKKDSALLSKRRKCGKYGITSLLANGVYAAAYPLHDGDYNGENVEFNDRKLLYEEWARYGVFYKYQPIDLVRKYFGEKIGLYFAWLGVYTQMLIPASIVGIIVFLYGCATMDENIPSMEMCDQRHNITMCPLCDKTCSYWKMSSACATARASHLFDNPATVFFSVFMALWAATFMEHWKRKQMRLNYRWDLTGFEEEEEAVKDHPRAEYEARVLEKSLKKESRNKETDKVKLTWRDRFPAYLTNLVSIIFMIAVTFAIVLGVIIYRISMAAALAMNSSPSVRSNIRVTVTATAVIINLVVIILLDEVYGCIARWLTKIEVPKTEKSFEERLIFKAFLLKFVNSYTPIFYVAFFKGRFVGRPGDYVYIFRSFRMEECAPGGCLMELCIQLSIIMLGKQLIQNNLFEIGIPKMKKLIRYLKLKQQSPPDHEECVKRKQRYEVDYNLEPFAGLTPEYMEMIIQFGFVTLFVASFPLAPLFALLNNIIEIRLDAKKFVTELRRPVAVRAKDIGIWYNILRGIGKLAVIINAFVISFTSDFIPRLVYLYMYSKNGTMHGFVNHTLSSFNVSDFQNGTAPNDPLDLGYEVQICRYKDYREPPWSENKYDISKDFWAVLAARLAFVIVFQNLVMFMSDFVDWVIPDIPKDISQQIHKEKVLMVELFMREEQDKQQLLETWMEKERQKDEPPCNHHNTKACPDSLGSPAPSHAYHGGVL
Protocol: as §1
(§2) Snapwell inserts containing ANO1(abc) or CFTR-expressing FRT cells were mounted in Ussing chambers (Physiological Instruments, San Diego, CA). The basolateral hemichamber was filled with buffer solution (in mM): 120 NaCl, 5 KCl, 1 MgCl2, 1 CaCl2, 10 D-glucose, 2.5 HEPES, and 25 NaHCO3 (pH 7.4). The apical hemichamber was filled with buffer solution (in mM): 60 NaCl, 60 Na-gluconate, 5 KCl, 1 MgCl2, 1 CaCl2, 10 D-glucose, 2.5 HEPES, and 25 NaHCO3 (pH 7.4). FRT cells were bathed for a 10 min stabilization period and gassed with 5% CO2 and 95% O2 at 37 °C. The apical membrane current was recorded with an EVC4000 Multi-Channel V/I Clamp (World Precision Instruments, Sarasota, FL, USA) and a PowerLab 4/35 (AD Instruments, Castle Hill, Australia).

hERG = conditions: 10 μM, Xenopus oocytes overexpressed with hERG; cited from earlier work
human CFTR = biological target: T3, human CFTR (Homo sapiens, UniProt P13569); assay: Apical membrane current of CFTR in FRT cells expressing human CFTR; type: cell-based; conditions: apical membrane current, FRT cells expressing human CFTR, 20 μM forskolin, n = 5; read-out: CFTR chloride channel IC50
T3 construct: expressed in transfected cells; host or cells: Fisher rat thyroid (FRT) cells
Description: […]. (C) Summary of dose-response (mean ± S.E., n = 5). […]. (F) Summary of dose−response (mean ± S.E., n = 6).
as §2

T1 sequence (Q12809 whole entry): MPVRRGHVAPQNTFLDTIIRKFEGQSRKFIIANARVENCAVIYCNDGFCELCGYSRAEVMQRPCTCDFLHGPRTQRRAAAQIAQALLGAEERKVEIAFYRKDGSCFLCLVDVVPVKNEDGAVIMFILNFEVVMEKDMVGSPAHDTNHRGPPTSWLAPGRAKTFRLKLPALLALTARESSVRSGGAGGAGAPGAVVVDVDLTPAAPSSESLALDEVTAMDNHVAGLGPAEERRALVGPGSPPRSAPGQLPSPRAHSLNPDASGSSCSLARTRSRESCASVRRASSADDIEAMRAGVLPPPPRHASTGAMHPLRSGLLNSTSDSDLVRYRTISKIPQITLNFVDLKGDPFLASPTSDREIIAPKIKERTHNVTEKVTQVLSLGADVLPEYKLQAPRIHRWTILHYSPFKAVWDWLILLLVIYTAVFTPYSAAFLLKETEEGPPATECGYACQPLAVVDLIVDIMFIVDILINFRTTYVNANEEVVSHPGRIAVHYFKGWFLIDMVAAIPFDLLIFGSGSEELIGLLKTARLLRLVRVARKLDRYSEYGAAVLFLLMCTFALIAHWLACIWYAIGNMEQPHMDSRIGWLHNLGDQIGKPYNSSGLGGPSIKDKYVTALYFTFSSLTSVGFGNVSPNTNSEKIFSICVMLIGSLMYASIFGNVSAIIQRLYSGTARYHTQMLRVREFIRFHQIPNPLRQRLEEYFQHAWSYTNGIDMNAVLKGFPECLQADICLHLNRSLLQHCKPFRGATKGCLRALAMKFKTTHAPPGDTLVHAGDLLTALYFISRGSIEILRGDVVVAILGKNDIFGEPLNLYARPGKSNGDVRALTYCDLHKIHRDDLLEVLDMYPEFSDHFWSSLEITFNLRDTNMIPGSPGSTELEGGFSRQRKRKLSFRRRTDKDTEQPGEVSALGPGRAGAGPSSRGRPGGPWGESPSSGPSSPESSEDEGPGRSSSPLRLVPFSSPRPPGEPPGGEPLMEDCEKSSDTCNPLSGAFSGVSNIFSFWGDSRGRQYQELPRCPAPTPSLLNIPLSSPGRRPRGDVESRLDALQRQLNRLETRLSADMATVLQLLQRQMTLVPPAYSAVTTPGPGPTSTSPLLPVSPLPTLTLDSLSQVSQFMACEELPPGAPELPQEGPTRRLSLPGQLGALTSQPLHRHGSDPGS
T3 sequence (P13569 whole entry): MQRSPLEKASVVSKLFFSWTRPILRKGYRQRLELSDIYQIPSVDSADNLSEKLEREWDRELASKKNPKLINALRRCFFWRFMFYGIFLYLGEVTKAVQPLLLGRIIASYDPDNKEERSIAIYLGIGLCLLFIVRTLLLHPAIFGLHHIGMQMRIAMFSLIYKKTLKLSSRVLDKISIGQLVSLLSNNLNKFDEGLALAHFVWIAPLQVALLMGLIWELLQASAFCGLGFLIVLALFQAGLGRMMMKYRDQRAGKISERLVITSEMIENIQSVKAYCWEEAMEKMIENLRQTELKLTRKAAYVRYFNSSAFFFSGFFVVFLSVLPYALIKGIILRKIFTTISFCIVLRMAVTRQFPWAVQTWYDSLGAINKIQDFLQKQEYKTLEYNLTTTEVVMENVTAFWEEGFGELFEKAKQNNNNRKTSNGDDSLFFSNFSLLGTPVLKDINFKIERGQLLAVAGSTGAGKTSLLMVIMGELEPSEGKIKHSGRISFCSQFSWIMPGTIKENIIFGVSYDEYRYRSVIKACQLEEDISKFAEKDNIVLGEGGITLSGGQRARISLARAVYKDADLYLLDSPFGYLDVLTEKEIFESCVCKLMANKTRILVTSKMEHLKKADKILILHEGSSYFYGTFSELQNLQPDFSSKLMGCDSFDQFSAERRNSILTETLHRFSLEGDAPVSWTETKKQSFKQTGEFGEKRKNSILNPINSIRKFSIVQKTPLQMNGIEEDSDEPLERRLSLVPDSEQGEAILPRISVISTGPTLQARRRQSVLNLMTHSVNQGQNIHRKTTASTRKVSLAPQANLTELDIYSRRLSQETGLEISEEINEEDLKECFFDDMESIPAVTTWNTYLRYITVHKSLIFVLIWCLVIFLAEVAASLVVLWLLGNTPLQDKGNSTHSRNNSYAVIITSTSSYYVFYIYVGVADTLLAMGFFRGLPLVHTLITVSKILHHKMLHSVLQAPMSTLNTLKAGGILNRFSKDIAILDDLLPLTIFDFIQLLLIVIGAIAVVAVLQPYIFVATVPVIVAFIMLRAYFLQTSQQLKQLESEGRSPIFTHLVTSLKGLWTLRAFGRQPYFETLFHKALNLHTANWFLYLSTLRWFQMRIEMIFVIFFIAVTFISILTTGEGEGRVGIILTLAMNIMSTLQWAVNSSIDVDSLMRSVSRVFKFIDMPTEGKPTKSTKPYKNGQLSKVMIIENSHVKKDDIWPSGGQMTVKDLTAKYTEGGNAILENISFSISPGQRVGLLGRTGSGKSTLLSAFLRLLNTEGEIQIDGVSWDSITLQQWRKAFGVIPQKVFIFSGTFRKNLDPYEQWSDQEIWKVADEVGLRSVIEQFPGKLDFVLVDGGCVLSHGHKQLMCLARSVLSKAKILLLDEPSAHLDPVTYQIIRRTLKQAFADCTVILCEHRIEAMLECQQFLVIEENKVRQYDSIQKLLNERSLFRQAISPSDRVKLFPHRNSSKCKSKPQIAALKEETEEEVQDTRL

SMILES: CCCCC1(C2CCCC2)Cc2cc(OCCCC(=O)O)c(Cl)c(Cl)c2C1=O (stereo not drawn) [DCPIB, 4-(2-butyl-6,7-dichlor-2-cyclopentylindan-1-on-5-yl) oxobutyric acid]
- effect on hERG K+ channel activity (hERG K+ channel; 10 μM): significantly blocked
- IC50 (hERG K+ channel; thallium flux, HEK293T cells expressing hERG, n = 6): 11.4 µM
- effect on ATP-induced intracellular calcium increase [1]: significantly affected; also recorded: strongly blocked; also recorded: potently blocked; also recorded: potently inhibited
- effect on cell viability (NIH-3T3 cells): significantly reduced cell viability
- effect on calcium-activated chloride currents [2]: did not affect
- effect on Eact-activated ANO1 chloride current (ANO1; 10 μM): increased
- effect on Eact-activated ANO1 chloride current (ANO1; 100 μM): almost completely inhibited
- effect on hERG (hERG): did not inhibit
- IC50 (human CFTR): 71.7 µM
